In brackets after ≈: the same amount, converted by molar mass.
Tests used:
[1] = test system: cervical cancer cell of HeLa229; test: Growth inhibition of HeLa 229 (MTT); assay type: cell-based
[2] = test system: encephalophyma cell of A172; test: Growth inhibition of A172 (MTT); assay type: cell-based
Description: (§1) In the present experiment, the inhibitory activity of the compound of formula (1) was determined against the growth of K562 cancer cell. First, the cells were allowed to stand in RPMI (Roswell Park Memorial Institute)-1640 medium containing 10% (v/v) fetal bovine serum in an incubator of 37° C. and 5% by volume of CO2. The cancer cells (1000 cells) were transferred to a 96-well plate, and the test compound was diluted. The plate was allowed to stand under the above mentioned conditions for 2 days. After this treatment, to the cells was added 0.2% MTT (3-[4,5-dimethylthiazol-2-yl]-2,5-diphenyltetrazolium bromide) solution, and the resulting mixture was allowed to stand under the constant temperature-condition for 4 hours. The supernatant was removed to leave the resulting crystal. DMSO was added to dissolve the crystal, and the absorbance of the solution was measured at 540 nm. IC50 value was calculated using a computer system according to the following formula: […]
(§2) The test was performed according to the same procedure as Experiment 1.

[3] = test system: colon cancer cell of SNU-C1; test: Growth inhibition of SNU-C1 (MTT); assay type: cell-based
[4] = test system: pancreatic cancer cell of PANC-1; test: Growth inhibition of PANC-1 (MTT); assay type: cell-based
[5] = test system: rectal cancer cell of CMT-93; test: Growth inhibition of CMT-93 (MTT); assay type: cell-based
Description: as §1, §2

[6] = test system: pancreatic cancer cell of CAPAN-2; test: Growth inhibition of CAPAN-2 (MTT); assay type: cell-based; conditions: CAPAN-2
[7] = test system: bladder cancer cell of HT-1197; test: Growth inhibition of HT-1197 (MTT); assay type: cell-based
Description: as §1, §2

[8] = test system: oral epithelial cancer cell (KB); test: Growth inhibition of KB (MTT); assay type: cell-based; conditions: Homo sapiens
Description: as §1, §2

[9] = test system: L1210 cancer cell (leukemia cell line); test: Growth inhibition of L1210 cancer cell (MTT); assay type: cell-based; conditions: Mus musculus
Description: as §1
In the present experiment, the inhibitory activity of the compound of formula (1) was determined against the growth of L1210 cancer cell. The test was performed according to the same procedure as Experiment 1.

[10] = Acute toxicity test in mice (oral administration); conditions: both sexes, ICR, mouse, in vivo, 2000 mg/kg; mice, oral
Description: (§3) In order to determine the acute toxicity of the compound of the present invention when the compound is orally administered, mice (ICR, 24˜26 g) were fasted for 16 hours. One group consists of 10 males and 10 females. The first group is the control group and physiological saline was administered per oral to this group. The compounds of Examples 2 and 4 were orally administered in a dosage of 2000 mg/kg, the maximum dosage in acute toxicity test, to each test group. […] On the last day of the test, 14th day from the start, the mice were subjected to an autopsy in order to examine changes of the internal organs. […] This means that the compounds of the present invention including those of Examples 2 and 4 are safe in the aspect of acute toxicity.

mice (ICR) = test: Acute toxicity test in mice (oral administration); conditions: mouse, in vivo, po, 2000 mg/kg
Description: as §3

[11] = test system: acute myelogenous leukemia cell (KG-1); test: Growth inhibition of KG-1 (MTT); assay type: cell-based
[12] = test system: gastric cancer cell (KATO III); test: Growth inhibition of KATO III (MTT); assay type: cell-based; conditions: Homo sapiens
Description: as §1, §2

[13] = test system: breast cancer cell (MCF-7); test: Growth inhibition of MCF-7 (MTT); assay type: cell-based; conditions: Homo sapiens, MCF7
Description: as §1, §2

[14] = test system: hematologic malignancy cell (HL-60); test: Growth inhibition of HL-60 (MTT); assay type: cell-based; conditions: Homo sapiens
[15] = Comparative pharmacokinetic test in white rats; assay type: in vivo, white rats (Sprague-Dawley); conditions: male, Sprague-Dawley, plasma, po, rat, 50 mg/kg, P.O.
Description: On the previous day to the test, white rats (Sprague-Dawley, 250˜280 g, male) were put under anesthesia by pentobarbital sodium (50 mg/kg, I.P.). Then, cannula (polyethylene tube; diameter: 0.58mm) was introduced into the rats via the carotid artery and jugular vein, and drawn out to the back. After the operation, the rats were fasted for 16 hours and used for the test. […] Blood was collected in 0, 0.5, 1, 1.5, 2, 2.5, 3, 3.5, 4, 4.5, 5, 6, 8, 10, 12, and 24 hours from the carotid artery. The samples for HPLC analysis were prepared using the collected blood according to the following procedure and were analyzed under the following conditions.
Blood was collected by an amount of 0.5 ml at each prearranged time and centrifuged at 15000 rpm for 7 minutes to separate […] of plasma. In order to remove proteins, MeOH was added in an amount of […], twice as much as the amount of plasma, and the mixture was shaken for 30 minutes. The mixture was centrifuged again at 15000 rpm for 5 minutes to give protein free supernatant, which was then analyzed by HPLC.
Flow rate: 1.0 ml/min, UV detection at 267 nm
Column: 4.6×150 mm, 5C18-AR-II, COSMOSIL
Eluent: Mixture of ion pair sample (420 ml) and MeOH (580 ml)
Ion pair sample: 7.5 g of 1-octanesulfonic acid was dissolved in 800 ml of water. The resulting mixture was adjusted to pH 2.5 using phosphoric acid and diluted with water to 1000 ml volume.
Here, the pharmacokinetic parameters are Tmax (time to reach the maximum blood concentration), Cmax (maximum blood concentration), AUC (area under the curve of time-blood concentration), and T1/2 (half time in blood), and the AUC was calculated under trapezoid rule (see Tables 6, 7 and FIGS. 1, 2).

[16] = test system: prostatic cancer cell (DU-145); test: Growth inhibition of DU-145 (MTT); assay type: cell-based; conditions: Homo sapiens
Description: as §1, §2

lung cancer cell (A549) = test: Growth inhibition of A549 (MTT); assay type: cell-based; conditions: Homo sapiens
Description: as §1, §2

[17] = test system: ovarian cancer cell (SK-OV-03); test: Growth inhibition of SK-OV-03 (MTT); assay type: cell-based
Description: as §1, §2

[18] = test system: U937 cancer cell (monocyte like leukemia cell line); test: Growth inhibition of U937 cancer cell (MTT); assay type: cell-based
Description: as §1
In the present experiment, the inhibitory activity of the compound of formula (1) was determined against the growth of U937 cancer cell. The test was performed according to the same procedure as Experiment 1.

[19] = test system: K562 cancer cell (CML cell line); test: Growth inhibition of K562 cancer cell (MTT); assay type: cell-based; conditions: Homo sapiens, K562, 48 h, K562, 2 days, MTT; read-out: IC50
Description: In the present experiment, the inhibitory activity of the compound of formula (1) was determined against the growth of K562 cancer cell. First, the cells were allowed to stand in RPMI (Roswell Park Memorial Institute)-1640 medium containing 10% (v/v) fetal bovine serum in an incubator of 37° C. and 5% by volume of CO2. The cancer cells (1000 cells) were transferred to a 96-well plate, and the test compound was diluted. The plate was allowed to stand under the above mentioned conditions for 2 days. […] The supernatant was removed to leave the resulting crystal.

[20] = test system: lymphoma cell (RPMI-6666); test: Growth inhibition of RPMI-6666 (MTT); assay type: cell-based
Description: as §1, §2

hepatoma cell (SNU-182) = test: Growth inhibition of SNU-182 (MTT); assay type: cell-based; conditions: Homo sapiens
Description: as §1, §2

Molecule `N.N.[Cl][Pt][Cl]` [Cisplatin, cisplatin, reference compound] has an IC50 [1] of 0.9 µg/mL, an IC50 [2] of 5.7 µg/mL and an IC50 [3] of 302 µg/mL. For the same molecule, the IC50 [4] was 41.55 µg/mL, the IC50 [5] was 0.67 µg/mL and the IC50 [6] was 496.9 µg/mL. For the same molecule, the IC50 [7] was 7.5 µg/mL.

For `CS(=O)(=O)O.Cc1ccc(NC(=O)c2ccc(CN3CCCN(C)CC3)cc2)cc1Nc1nccc(-c2cccnc2)n1` [Example 2, 4-(4-methylhomopiperazin-1-ylmethyl)-N-[4-methyl-3-(4-(pyridin-3-yl)pyrimidin-2-yl)aminophenyl]benzamide methanesulfonate], the IC50 [8] was 31.6 µg/mL, the IC50 [9] was 7.6 µg/mL and the LD50 at 14 days [10] was ≥ 2000 mg/kg. The “Clinical conditions and autopsy” value (mice (ICR)) was “neither abnormal response nor specific autopsy result was observed”, the “Mortality during the test period” value (mice (ICR)) was “no mouse died” and the “IC50 as fraction of that of Imatinib mesylate” value [11] was “¼”. For the same molecule, the IC50 ([11]; Homo sapiens) was 7.31 µg/mL, the IC50 [12] was 30 µg/mL and the IC50 [13] was 36.2 µg/mL. For the same molecule, the IC50 [14] was 17.7 µg/mL, the Cmax [15] was 2200 ng/mL and the Tmax [15] was 1.5 h. The AUC ([15]; trapezoid rule) was 26200 ng·h/mL, the IC50 [16] was 30.3 µg/mL and the IC50 (lung cancer cell (A549)) was 27.6 µg/mL. For the same molecule, the IC50 [17] was 38 µg/mL, the “Improved activity versus Imatinib mesylate” value [18] was 40 times and the IC50 ([18]; Homo sapiens, U-937) was 0.7 µg/mL. For the same molecule, the IC50 [19] was 1.2 µg/mL, the “IC50 as fraction of that of Imatinib mesylate” value [20] was “½” and the IC50 ([20]; Homo sapiens) was 14.7 µg/mL. It also gave an IC50 (hepatoma cell (SNU-182)) of 24.7 µg/mL.

`O=c1[nH]cc(F)c(=O)[nH]1` [Example 5-FU, 5-Fu, reference compound] gave an IC50 [1] of 81.03 µg/mL (≈ 623 µM), an IC50 [2] of 99 µg/mL (≈ 761 µM) and an IC50 [3] of 95.3 µg/mL (≈ 733 µM). For the same molecule, the IC50 [4] was 553.8 µg/mL (≈ 4260 µM), the IC50 [5] was 1.1 µg/mL (≈ 8.46 µM) and the IC50 [6] was 1000> μg/ml. It also gave an IC50 [7] of 98.5 µg/mL (≈ 757 µM).

Source: patent publication US20040248918A1, “N-phenyl-2-pyrimidine-amine derivatives and process for the preparation thereof” (IL YANG PHARM. CO., LTD., priority 2003, published 2004)
